Assay results published in PubChem BioAssay (NCI).
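Interpolation was linear, between the two tested concentrations surrounding the appropriate level; five concentrations were tested over 48 hours in 96-well plates. At the TGI there is no net growth.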

How the values were obtained:
Experiment in all cases: DTP human tumour cell line panel, 48 h
[1] = test system: BT-549 breast
[2] = test system: HCC-2998 colon
[3] = test system: HOP-62 NSCLC
[4] = test system: HT29 colon
[5] = test system: LOX IMVI melanoma
[6] = test system: NCI-H23 lung
[7] = test system: NCI/ADR-RES ovarian
[8] = test system: T-47D breast
[9] = test system: RPMI-8226 leukemia
[10] = test system: SK-MEL-2 melanoma

Compound: CCOC(=N)n1c(=O)n(C2=NCCN2)c2ccccc21
- TGI [1]: > 100 µM
- TGI [2]: > 100 µM
- TGI [3]: > 100 µM
- TGI [4]: > 100 µM
- TGI [5]: > 100 µM
- TGI [6]: > 100 µM
- TGI [7]: > 100 µM
- TGI [8]: > 100 µM

Compound: C=CC[C@]12C[C@@H](C(=O)OC)N(C(=O)OC)[C@H]1N(S(=O)(=O)c1ccccc1)c1ccccc12
- TGI [1]: > 100 µM
- TGI [2]: > 100 µM
- TGI [3]: > 100 µM
- TGI [4]: > 100 µM
- TGI [6]: > 100 µM
- TGI [7]: > 100 µM
- TGI [9]: > 100 µM
- TGI [10]: > 100 µM
- TGI [8]: > 100 µM

Compound: COC(=O)c1c2c(cc3c1CC1(C3)Cc3cc4c(c(C(=O)OC)c3C1)CCCC4)CCCC2
- TGI [2]: > 100 µM
- TGI [3]: > 100 µM
- TGI [4]: > 100 µM
- TGI [5]: > 100 µM
- TGI [6]: > 100 µM
- TGI [7]: > 100 µM
- TGI [9]: > 100 µM
- TGI [10]: 5.18 µM
- TGI [8]: > 100 µM

Compound: Clc1ccc(-c2nn3c(-c4ccncc4)nnc3s2)cc1
- TGI [1]: > 100 µM
- TGI [3]: 51.3 µM
- TGI [4]: > 100 µM
- TGI [5]: > 100 µM
- TGI [6]: > 100 µM
- TGI [7]: > 100 µM
- TGI [9]: > 100 µM
- TGI [10]: > 100 µM
- TGI [8]: > 100 µM

Compound: N#C/C(=C\c1cc(Br)c(O)c(Br)c1)c1cccnc1
- TGI [1]: 56.9 µM
- TGI [2]: > 100 µM
- TGI [3]: 97.2 µM
- TGI [4]: > 100 µM
- TGI [6]: 52.8 µM
- TGI [7]: 59.1 µM
- TGI [9]: 86.3 µM
- TGI [10]: 44.4 µM

Compound: O=C(N=Nc1cc(Cl)ccc1Cl)NNc1cc(Cl)ccc1Cl
- TGI [2]: 94.1 µM
- TGI [3]: 40.7 µM
- TGI [4]: 37 µM
- TGI [6]: 53.1 µM
- TGI [7]: 61.2 µM
- TGI [9]: 33.8 µM
- TGI [10]: 51.5 µM
- TGI [8]: > 100 µM

Compound: CN(C)c1nc(=NCc2ccccc2)ss1
- TGI [2]: > 10 µM
- TGI [3]: > 10 µM
- TGI [4]: > 10 µM
- TGI [5]: > 10 µM
- TGI [6]: > 10 µM
- TGI [7]: > 10 µM
- TGI [9]: > 10 µM
- TGI [8]: > 10 µM

Compound: O=C1C=CC(=O)N1Nc1ccc([N+](=O)[O-])cc1[N+](=O)[O-]
- TGI [2]: > 100 µM
- TGI [3]: > 100 µM
- TGI [4]: > 100 µM
- TGI [5]: > 100 µM
- TGI [6]: > 100 µM
- TGI [9]: > 68.7 µM
- TGI [10]: > 100 µM

Compound: Cc1cc(=O)c2c([nH]1)NS(=O)(=O)NC2=O
- TGI [2]: > 100 µM
- TGI [3]: > 100 µM
- TGI [4]: > 100 µM
- TGI [6]: > 100 µM
- TGI [9]: > 100 µM
- TGI [10]: > 100 µM

Compound: BrC/C=C/C[P+](c1ccccc1)(c1ccccc1)c1ccccc1
- TGI [2]: > 100 µM
- TGI [3]: 58.2 µM
- TGI [5]: 33.5 µM
- TGI [6]: > 100 µM
- TGI [9]: > 100 µM
- TGI [10]: 25.7 µM

Compound: CC1(C)N=C(C(N)=O)c2ncn(CCCO)c2N1
- TGI [2]: > 100 µM
- TGI [3]: > 100 µM
- TGI [4]: > 100 µM
- TGI [5]: > 100 µM
- TGI [6]: > 100 µM
- TGI [7]: > 100 µM
- TGI [9]: > 100 µM
- TGI [8]: > 100 µM

Compound: CC12CC(=O)C3C(C(=O)C1)C32C (stereo not given)
- TGI [1]: > 100 µM
- TGI [2]: > 100 µM
- TGI [3]: > 100 µM
- TGI [4]: > 100 µM
- TGI [5]: > 100 µM
- TGI [6]: > 100 µM
- TGI [7]: > 100 µM
- TGI [9]: > 100 µM
- TGI [10]: > 100 µM
